{"source": "the NIST ThermoML archive (doi:10.1021/je8006474)", "conditions": "101.33 kPa, Liquid, Pycnometric method", "note": "± gives the expanded uncertainty stated by the source.", "data": [{"smiles": "Fc1ccc(F)c(F)c1", "note": "[1,2,4-trifluorobenzene]", "values": [{"measurement": "mass density", "setting": "296.6 K", "value": "1280 ± 36", "unit": "kg/m3"}, {"measurement": "mass density", "setting": "330.7 K", "value": "1247 ± 36", "unit": "kg/m3"}]}, {"smiles": "Fc1ccccc1F", "note": "[1,2-difluorobenzene]", "values": [{"measurement": "mass density", "setting": "296.2 K", "value": "1156 ± 36", "unit": "kg/m3"}, {"measurement": "mass density", "setting": "331.1 K", "value": "1117 ± 36", "unit": "kg/m3"}]}, {"smiles": "Fc1cc(F)cc(F)c1", "note": "[1,3,5-trifluorobenzene]", "values": [{"measurement": "mass density", "setting": "297.2 K", "value": "1268 ± 36", "unit": "kg/m3"}, {"measurement": "mass density", "setting": "324.9 K", "value": "1225 ± 36", "unit": "kg/m3"}]}, {"smiles": "Fc1cccc(F)c1", "note": "[1,3-difluorobenzene]", "values": [{"measurement": "mass density", "setting": "296.2 K", "value": "1139 ± 36", "unit": "kg/m3"}, {"measurement": "mass density", "setting": "330.6 K", "value": "1094 ± 36", "unit": "kg/m3"}]}, {"smiles": "Fc1ccc(F)cc1", "note": "[1,4-difluorobenzene]", "values": [{"measurement": "mass density", "setting": "296.1 K", "value": "1146 ± 36", "unit": "kg/m3"}, {"measurement": "mass density", "setting": "327.2 K", "value": "1110 ± 36", "unit": "kg/m3"}]}, {"smiles": "Fc1ccccc1", "note": "[fluorobenzene]", "values": [{"measurement": "mass density", "setting": "296.2 K", "value": "1022 ± 16", "unit": "kg/m3"}, {"measurement": "mass density", "setting": "330.1 K", "value": "985 ± 16", "unit": "kg/m3"}]}, {"smiles": "Fc1cc(F)c(F)c(F)c1F", "note": "[pentafluorobenzene]", "values": [{"measurement": "mass density", "setting": "296.9 K", "value": "1511 ± 20", "unit": "kg/m3"}, {"measurement": "mass density", "setting": "327.6 K", "value": "1453 ± 20", "unit": "kg/m3"}]}]}
